# Where a name gives a salt, the structure may show the parent alone.
# How the values were obtained:
# Type in all cases: cell-based
# Adenosine 2a receptor = target: T1, Adenosine 2a receptor (Homo sapiens, UniProt P29274); test: Agonist activity against adenosine 2a receptor subtype (CHO cells, cAMP response element/SPAP reporter); details: EC50 ratio to NECA; transfected CHO cells, basal cAMP reflected by SPAP
# T1 construct: expressed in transfected cells; host or cells: Chinese hamster ovary (CHO) cells, co-transfected with a CRE-SPAP reporter
# Experimental: (§1) (1) Agonist Activity Against Adenosine 2a, Adenosine 1 and Adenosine 3 Receptor Subtypes.
# (§2) Agonist selectivity of compounds against other human adenosine receptors is determined using Chinese hamster ovary (CHO) cells transfected with the gene for the relevant human adenosine receptor following a method based on that of Castanon and Spevak, 1994. The CHO cells are also transfected with cyclic AMP response elements promoting the gene for secreted placental alkaline phosphatase (SPAP) (Wood, 1995). The effect of test compounds may be determined by their effects on basal levels of cAMP (A2a) or on forskolin-enhanced cAMP (A1 and A3) as reflected by changes in levels of SPAP. EC50 values for compounds may then be determined as a ratio to that of the non-selective agonist N-ethyl carboxamide adenosine (NECA).
# (§3) Values given in the Table are EC50 values as a ratio of that of NECA.
# Adenosine 3 receptor = target: T2, Adenosine 3 receptor (Homo sapiens, UniProt P0DMS8); test: Agonist activity against adenosine 3 receptor subtype (CHO cells, forskolin-enhanced cAMP, SPAP reporter); details: EC50 ratio to NECA; transfected CHO cells, forskolin-enhanced cAMP reflected by SPAP
# T2 construct: expressed in transfected cells; host or cells: Chinese hamster ovary (CHO) cells, co-transfected with a CRE-SPAP reporter
# T2 sequence (P0DMS8 1-318): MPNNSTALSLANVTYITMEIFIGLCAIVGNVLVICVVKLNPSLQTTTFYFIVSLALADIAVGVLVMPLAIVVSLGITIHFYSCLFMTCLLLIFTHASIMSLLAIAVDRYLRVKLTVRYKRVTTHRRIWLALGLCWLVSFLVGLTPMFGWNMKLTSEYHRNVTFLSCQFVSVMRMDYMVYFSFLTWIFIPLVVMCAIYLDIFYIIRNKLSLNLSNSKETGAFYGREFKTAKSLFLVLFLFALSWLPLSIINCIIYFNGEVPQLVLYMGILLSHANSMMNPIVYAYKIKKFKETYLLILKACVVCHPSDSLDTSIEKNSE
# Experimental: as §1, §2, §3
# Adenosine 1 receptor = target: T3, Adenosine 1 receptor (Homo sapiens, UniProt P30542); test: Agonist activity against adenosine 1 receptor subtype (CHO cells, forskolin-enhanced cAMP, SPAP reporter); details: EC50 ratio to NECA; transfected CHO cells, forskolin-enhanced cAMP reflected by SPAP
# T3 construct: expressed in transfected cells; host or cells: Chinese hamster ovary (CHO) cells, co-transfected with a CRE-SPAP reporter
# T3 sequence (P30542 1-326): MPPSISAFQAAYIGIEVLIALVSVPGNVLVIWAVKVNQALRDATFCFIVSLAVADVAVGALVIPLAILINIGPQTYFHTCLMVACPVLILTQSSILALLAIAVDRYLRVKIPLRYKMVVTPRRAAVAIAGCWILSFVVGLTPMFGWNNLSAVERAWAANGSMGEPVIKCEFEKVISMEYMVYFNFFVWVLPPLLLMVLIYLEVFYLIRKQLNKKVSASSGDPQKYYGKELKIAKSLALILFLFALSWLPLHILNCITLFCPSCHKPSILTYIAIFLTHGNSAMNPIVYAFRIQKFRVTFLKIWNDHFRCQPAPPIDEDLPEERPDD
# Experimental: as §1, §2, §3
# T1 sequence (P29274 whole entry): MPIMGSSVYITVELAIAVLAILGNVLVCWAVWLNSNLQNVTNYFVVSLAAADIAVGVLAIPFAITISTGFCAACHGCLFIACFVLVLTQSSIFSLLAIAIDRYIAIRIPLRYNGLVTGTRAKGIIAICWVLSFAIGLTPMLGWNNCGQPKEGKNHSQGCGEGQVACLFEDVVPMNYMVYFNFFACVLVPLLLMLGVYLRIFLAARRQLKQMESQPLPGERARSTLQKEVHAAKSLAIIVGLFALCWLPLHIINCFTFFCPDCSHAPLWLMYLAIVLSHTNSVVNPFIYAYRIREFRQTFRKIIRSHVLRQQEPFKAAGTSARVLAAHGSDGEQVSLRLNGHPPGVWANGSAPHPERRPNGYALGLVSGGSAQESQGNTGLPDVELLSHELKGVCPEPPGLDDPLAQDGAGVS
SMILES,A2a (EC50 values as a ratio of that of NECA) (Adenosine 2a receptor),A3 (EC50 values as a ratio of that of NECA) (Adenosine 3 receptor),A1 (EC50 values as a ratio of that of NECA) (Adenosine 1 receptor)
"CCc1cc([C@H]2O[C@@H](n3cnc4c(NCC(c5ccccc5)c5ccccc5)nc(N[C@H]5CC[C@H](N)CC5)nc43)[C@H](O)[C@@H]2O)on1.O=CO.O=CO (relative stereo) [Example 19, (2R,3R,4S,5S)-2-[2-(trans-4-Amino-cyclohexylamino)-6-(2,2-diphenyl-ethylamino)-purin-9-yl]-5-(3-ethyl-isoxazol-5-yl)-tetrahydro-furan-3,4-diol diformate]",2.41,>295,670.2
"CCc1cc([C@H]2O[C@@H](n3cnc4c(NCC(c5ccccc5)c5ccccc5)nc(NCCN5CCCCC5)nc43)[C@H](O)[C@@H]2O)on1.O=CO.O=CO [Example 1, (2R,3R,4S,S)-2-[6-(2,2-Diphenyl-ethylamino)-2-(2-piperidin-1-yl-ethylamino)-purin-9-yl]-5-(3-ethyl-isoxazol-5-yl)-tetrahydro-furan-3,4-diol diformate]",0.52,>436,288.5
"CCc1cc(C2OC(n3cnc4c(NCC(c5ccccc5)c5ccccc5)nc(NCCN5CCOCC5)nc43)C(O)C2O)on1 [Example 2, (2R,3R,4S,5S)-2-[6-(2,2-Diphenyl-ethylamino)-2-(2-morpholin-4-yl-ethylamino)-purin-9-yl]-5-(3-ethyl-isoxazol-5-yl)-tetrahydro-furan-3,4-diol diformate.]",0.43,>545,88.9
"CCc1cc(C2OC(n3cnc4c(NCCc5ccccc5)nc(NCCN5CCCCC5)nc43)C(O)C2O)on1.O=CO.O=CO [Example 3, (2R,3R,4S,5S)-2-(3-Ethyl-isoxazol-5-yl)-5-[6-phenethylamino-2-(2-piperidin-1-yl-ethylamino)-purin-9-yl]-tetrahydro-furan-3,4-diol diformate]",1.32,>375,231
"CCc1cc([C@H]2O[C@@H](n3cnc4c(NCC(c5ccccc5)c5ccccc5)nc(NCCO)nc43)[C@H](O)[C@@H]2O)on1.O=CO [Example 4, (2R,3R,4S,5S)-2-[6-(2,2-Diphenyl-ethylamino)-2-(2-hydroxy-ethylamino)-purin-9-yl]-5-(3-ethyl-isoxazol-5-yl)-tetrahydro-furan-3,4-diol formate]",0.92,>267,109.3
"CCc1cc([C@H]2O[C@@H](n3cnc4c(NC(CC)CC)nc(NCCc5cn(C)cn5)nc43)[C@H](O)[C@@H]2O)on1.O=CO.O=CO [Example 5, (2S,3S,4R,5R)-2-(3-Ethyl-isoxazol-5-yl)-5-{6-(1-ethyl-propylamino)-2-[2-(1-methyl-1H-imidazol-4-yl)-ethylamino]-purin-9-yl}-tetrahydro-furan-3,4-diol diformate]",0.11,>237,30.1
"CCc1cc([C@H]2O[C@@H](n3cnc4c(NC(CC)CC)nc(NCCN5CCCCC5)nc43)[C@H](O)[C@@H]2O)on1.O=CO.O=CO [Example 6, (2S,3S,4R,5R)-2-(3-Ethyl-isoxazol-5-yl)-5-[6-(1-ethyl-propylamino)-2-(2-piperidin-1-yl-ethylamino)-purin-9-yl]-tetrahydro-furan-3,4-diol diformate]",0.49,>393,66.4
"CCc1cc([C@H]2O[C@@H](n3cnc4c(NCCC(C)(C)C)nc(NCCc5cn(C)cn5)nc43)[C@H](O)[C@@H]2O)on1.O=CO.O=CO [Example 7, (2R,3R,4S,5S)-2-{6-(3,3-Dimethyl-butylamino)-2-[2-(1-methyl-1H-imidazol-4-yl)-ethylamino]-purin-9-yl}-5-(3-ethyl-isoxazol-5-yl)-tetrahydro-furan-3,4-diol diformate]",0.35,>312,>=309.4
"CCc1cc(C2OC(n3cnc4c(NC5CCCC5)nc(NCCN5CCCCC5)nc43)C(O)C2O)on1 [Example 8, (2S,3S,4R,5R)-2-(3-Ethyl-isoxazol-5-yl)-5-[6-(cyclopentylamino)-2-(2-piperidin-1-yl)-ethylamino)-purin-9-yl]-tetrahydro-furan-3,4-diol diformate]",0.67,>310,49.1
"CCc1cc(C2OC(n3cnc4c(NC5CCSCC5)nc(NCCNC(=N)N)nc43)C(O)C2O)on1 (stereo not drawn) [Example 9, N-{2-[9-[5S-(3-Ethyl-isoxazol-5-yl)-3R,4S-dihydroxy-tetrahydro-furan-2R-yl]-6-tetrahydro-thiopyran-4-ylamino)-9H-purin-2-ylamino]-ethyl}-guanidine diformate]",2.05,>323,132.3
"CCc1cc(C2OC(n3cnc4c(Nc5ccc(O)c(F)c5)nc(NCCN5CCCCC5)nc43)C(O)C2O)on1.O=CO.O=CO [Example 10, (2S,3S,4R,5R)-2-(3-Ethyl-isoxazol-5-yl)-5-[6-(3-fluoro-4-hydroxy-phenylamino)-2-(2-piperidin-1-yl-ethylamino)-purin-9-yl]-tetrahydro-furan-3,4-diol diformate]",2.07,>180,59.38
"CCc1cc(C2OC(n3cnc4c(NCCS(=O)(=O)NC)nc(NCCN5CCCCC5)nc43)C(O)C2O)on1 (stereo not drawn) [Example 11, 2-[9-[5S-(3-Ethyl-isoxazol-5-yl)-3R,4S-dihydroxy-tetrahydro-furan-2R-yl]-2-(2-piperidin-1-yl-ethylamino)-9H-purin-6-ylamino]-ethanesulfonic acid methylamide diformate]",3.66,>303,32.9
"CCc1cc([C@H]2O[C@@H](n3cnc4c(NC5CCSCC5)nc(NCCN5CCCCC5)nc43)[C@H](O)[C@@H]2O)on1.O=CO.O=CO [Example 12, (2S,3S,4R,5R)-2-(3-Ethyl-isoxazol-5-yl)-5-[2-(2-piperidin-1-yl-ethylamino)-6-(tetrahydro-thiopyran-4-ylamino)-purin-9-yl]-tetrahydro-furan-3,4-diol diformate]",3.39,>410,260.3
"CCc1cc([C@H]2O[C@@H](n3cnc4c(NC5CCOCC5)nc(NCCc5ccccn5)nc43)[C@H](O)[C@@H]2O)on1.O=CO.O=CO [Example 13, (2S,3S,4R,5R)-2-(3-Ethyl-isoxazol-5-yl)-5-[2-(2-pyridin-2-yl-ethylamino)-6-(tetrahydro-pyran-4-ylamino)-purin-9-yl]-tetrahydro-furan-3,4-diol diformate]",3.03,>146,61.9
"CCc1cc([C@H]2O[C@@H](n3cnc4c(NC5CCOCC5)nc(NCCN5CCCCC5)nc43)[C@H](O)[C@@H]2O)on1.O=CO.O=CO [Example 14, (2S,3S,4R,5R)-2-(3-Ethyl-isoxazol-5-yl)-5-[2-(2-piperidin-1-yl-ethylamino)-6-(tetrahydro-pyran-4-ylamino)-purin-9-yl]-tetrahydro-furan-3,4-diol diformate]",4.99,>254,77.1
"CCc1cc(C2OC(n3cnc4c(NC5CCOCC5)nc(NC(CO)Cc5ccccc5)nc43)C(O)C2O)on1 [Example 15, (2S,3S,4R,5R)-2-(3-Ethyl-isoxazol-5-yl)-5-[2-(1S-hydroxymethyl-2-phenyl-ethylamino)-6-(tetrahydro-pyran-4-ylamino)-purin-9yl]-tetrahydro-furan-3,4-diol formate]",3.66,>146,26.05

# Reference: patent US6762170B1, “2-(purin-9-yl)-tetrahydrofuran-3,4-diol derivatives” (SmithKlineBeecham Corporation, priority 1998, dated 2004)
